13 molecules from US11447466B2, “Substituted indole compounds useful as inhibitors of TLR7/8/9” (BRISTOL-MYERS SQUIBB COMPANY, priority 2017, dated 2022) can be followed below.

Holding throughout (format): cell-based
In assay [1] the target is T1, human TLR7 (Homo sapiens, UniProt Q9NYK1).
T1 construct: host or cells: HEK-Blue cells
T1 sequence (Q9NYK1 27-1049): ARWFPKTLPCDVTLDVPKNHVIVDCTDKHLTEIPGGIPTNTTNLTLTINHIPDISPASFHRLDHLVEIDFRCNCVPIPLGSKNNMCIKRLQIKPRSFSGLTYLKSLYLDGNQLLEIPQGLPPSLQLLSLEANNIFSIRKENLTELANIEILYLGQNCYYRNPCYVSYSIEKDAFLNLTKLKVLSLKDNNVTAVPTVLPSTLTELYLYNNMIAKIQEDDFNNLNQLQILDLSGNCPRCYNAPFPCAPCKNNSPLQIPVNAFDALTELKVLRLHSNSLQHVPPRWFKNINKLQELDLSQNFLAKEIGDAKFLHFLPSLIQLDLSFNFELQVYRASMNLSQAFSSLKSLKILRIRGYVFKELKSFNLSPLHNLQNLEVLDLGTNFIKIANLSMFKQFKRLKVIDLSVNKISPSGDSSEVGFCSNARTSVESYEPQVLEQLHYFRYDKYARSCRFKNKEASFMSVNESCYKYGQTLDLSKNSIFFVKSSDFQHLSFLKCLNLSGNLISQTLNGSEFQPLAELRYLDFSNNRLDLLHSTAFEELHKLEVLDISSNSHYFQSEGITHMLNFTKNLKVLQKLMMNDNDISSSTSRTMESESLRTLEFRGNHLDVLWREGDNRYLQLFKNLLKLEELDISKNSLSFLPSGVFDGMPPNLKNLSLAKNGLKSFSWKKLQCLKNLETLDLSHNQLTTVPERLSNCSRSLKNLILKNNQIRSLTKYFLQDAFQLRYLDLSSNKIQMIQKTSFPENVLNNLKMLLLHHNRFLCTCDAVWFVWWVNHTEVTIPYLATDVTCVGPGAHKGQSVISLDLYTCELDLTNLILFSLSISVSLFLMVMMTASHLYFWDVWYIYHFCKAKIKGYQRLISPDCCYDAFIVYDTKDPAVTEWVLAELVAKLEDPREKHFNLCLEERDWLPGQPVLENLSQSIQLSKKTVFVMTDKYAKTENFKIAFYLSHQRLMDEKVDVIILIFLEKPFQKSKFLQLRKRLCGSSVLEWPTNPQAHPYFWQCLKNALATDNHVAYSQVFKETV
Nature of the assay: TLR7 inhibition reporter assay (HEK-Blue SEAP reporter, gardiquimod stimulation). To be noted: HEK-Blue cells overexpressing human TLR7, SEAP reporter, gardiquimod 7.5 μM, 22 hour incubation. The method, boiled down: (§1)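 Screening used HEK-Blue cells overexpressing one human TLR (7, 8 or 9) and an IFN-β minimal promoter–NF-κB/AP-1 SEAP construct. Stimulation lasted 22 h at 37 °C with receptor-specific agonist: gardiquimod, R848 or ODN2006 at 7.5 μM, 15.9 μM and 5 nM.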

Assay [2] deals with T2, human TLR8 (Homo sapiens, UniProt Q9NR97).
T2 construct: host or cells: HEK-Blue cells
T2 sequence (Q9NR97 27-1041): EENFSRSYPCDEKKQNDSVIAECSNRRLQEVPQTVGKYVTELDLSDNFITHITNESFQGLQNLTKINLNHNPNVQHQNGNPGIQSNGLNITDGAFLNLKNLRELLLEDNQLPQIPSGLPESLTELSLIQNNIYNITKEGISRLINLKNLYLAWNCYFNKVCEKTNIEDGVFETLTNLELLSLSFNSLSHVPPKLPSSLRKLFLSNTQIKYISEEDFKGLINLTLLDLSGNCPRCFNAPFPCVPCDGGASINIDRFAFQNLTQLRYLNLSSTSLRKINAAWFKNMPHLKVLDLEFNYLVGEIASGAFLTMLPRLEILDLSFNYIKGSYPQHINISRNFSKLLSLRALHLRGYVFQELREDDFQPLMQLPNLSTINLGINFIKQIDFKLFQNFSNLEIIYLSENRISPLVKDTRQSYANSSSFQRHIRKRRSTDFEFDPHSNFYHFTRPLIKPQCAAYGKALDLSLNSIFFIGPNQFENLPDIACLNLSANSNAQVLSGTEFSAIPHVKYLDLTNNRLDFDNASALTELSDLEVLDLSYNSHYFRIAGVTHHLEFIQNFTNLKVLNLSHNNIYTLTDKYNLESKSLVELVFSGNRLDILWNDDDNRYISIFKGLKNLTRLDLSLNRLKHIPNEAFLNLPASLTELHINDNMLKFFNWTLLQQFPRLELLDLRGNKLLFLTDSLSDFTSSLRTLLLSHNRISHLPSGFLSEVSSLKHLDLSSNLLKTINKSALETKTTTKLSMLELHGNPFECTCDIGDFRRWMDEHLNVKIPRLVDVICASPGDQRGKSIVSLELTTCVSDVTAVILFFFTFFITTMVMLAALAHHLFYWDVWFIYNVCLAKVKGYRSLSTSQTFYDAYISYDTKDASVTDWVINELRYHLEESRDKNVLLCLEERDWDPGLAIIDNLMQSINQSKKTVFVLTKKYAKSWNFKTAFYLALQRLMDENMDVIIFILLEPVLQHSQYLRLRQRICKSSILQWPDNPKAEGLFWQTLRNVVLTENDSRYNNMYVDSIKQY
Nature of the assay: TLR8 inhibition reporter assay (HEK-Blue SEAP reporter, R848 stimulation). To be noted: HEK-Blue cells overexpressing human TLR8, SEAP reporter, R848 15.9 μM, 22 hour incubation. An outline of the steps: as §1

Assay [3] has as its target T3, human TLR9 (Homo sapiens, UniProt Q9NR96).
T3 construct: host or cells: HEK-Blue cells
T3 sequence (Q9NR96 26-1032): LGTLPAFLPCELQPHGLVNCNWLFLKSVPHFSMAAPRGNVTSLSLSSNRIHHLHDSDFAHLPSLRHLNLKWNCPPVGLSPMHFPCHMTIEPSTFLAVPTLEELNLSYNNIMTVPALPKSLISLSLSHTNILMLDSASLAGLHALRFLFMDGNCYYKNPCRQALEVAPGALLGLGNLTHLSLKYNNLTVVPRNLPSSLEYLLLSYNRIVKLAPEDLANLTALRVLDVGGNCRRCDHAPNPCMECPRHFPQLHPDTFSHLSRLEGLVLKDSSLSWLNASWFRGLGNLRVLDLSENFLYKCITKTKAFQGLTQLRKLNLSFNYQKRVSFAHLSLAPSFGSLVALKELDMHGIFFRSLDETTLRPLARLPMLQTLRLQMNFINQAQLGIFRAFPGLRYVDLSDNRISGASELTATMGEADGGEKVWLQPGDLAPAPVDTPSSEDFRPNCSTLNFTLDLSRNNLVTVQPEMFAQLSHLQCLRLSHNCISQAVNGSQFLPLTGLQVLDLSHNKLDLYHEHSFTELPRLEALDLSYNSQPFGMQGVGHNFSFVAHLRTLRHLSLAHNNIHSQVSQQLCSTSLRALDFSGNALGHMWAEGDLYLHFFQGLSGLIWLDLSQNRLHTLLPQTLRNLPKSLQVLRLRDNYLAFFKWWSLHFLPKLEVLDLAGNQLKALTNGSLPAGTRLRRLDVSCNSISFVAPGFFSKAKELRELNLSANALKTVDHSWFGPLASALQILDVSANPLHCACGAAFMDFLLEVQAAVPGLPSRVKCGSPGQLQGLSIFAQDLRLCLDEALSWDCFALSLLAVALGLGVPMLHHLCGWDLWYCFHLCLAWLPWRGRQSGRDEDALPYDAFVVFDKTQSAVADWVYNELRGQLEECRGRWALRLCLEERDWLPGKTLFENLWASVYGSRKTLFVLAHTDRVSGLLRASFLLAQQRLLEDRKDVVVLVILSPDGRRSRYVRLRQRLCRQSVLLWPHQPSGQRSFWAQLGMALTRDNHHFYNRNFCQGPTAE
The assay is described as follows: TLR9 inhibition reporter assay (HEK-Blue SEAP reporter, ODN2006 stimulation). To be noted: HEK-Blue cells overexpressing human TLR9, SEAP reporter, ODN2006 5 nM, 22 hour incubation. The method, boiled down: as §1

In the case of `CCCN1CCC(c2ccc3[nH]c(-c4cc(-c5cnc(OC)nc5)c(=O)n(C)c4)c(C(C)C)c3c2)CC1` [Example 331, 5-(3-isopropyl-5-(1-propylpiperidin-4-yl)-1H-indol-2-yl)-3-(2-methoxypyrimidin-5-yl)-1-methylpyridin-2(1H)-one], the 50% inhibitory concentration (IC50) in assay [1] was determined as 6.3 nM; in assay [2], 9.6 nM; in assay [3], 2710 nM.
Turning to `Cc1cc(-c2[nH]c3ccc(C4CCN(CCN5C(=O)CCC5=O)CC4)cc3c2C(C)C)cn(C)c1=O` [Example 84, 1-(2-(4-(2-(1,5-dimethyl-6-oxo-1,6-dihydropyridin-3-yl)-3-isopropyl-1H-indol-5-yl)piperidin-1-yl)ethyl)pyrrolidine-2,5-dione], the half-maximal inhibitory concentration (IC50) was 44.3 nM in assay [1], 73.6 nM in assay [2] and ≥ 50000 nM in assay [3].
For the molecule `Cc1cc(-c2[nH]c3ccc(C4CCN(C)CC4)cc3c2C(C)C)cn(C)c1=O` [Example 181, 5-(3-isopropyl-5-(1-methylpiperidin-4-yl)-1H-indol-2-yl)-1,3-dimethylpyridin-2(1H)-one], the IC50 was found to be 2 nM in assay [1], 8.5 nM in assay [2] and 13500 nM in assay [3].
Taken in the same sequence, the figures for `Cc1c(-c2[nH]c3ccc(C4CCN(C(C)(C)C(N)=O)CC4)cc3c2C(C)C)cn(C)c(=O)c1Cl` [Example 154, 2-(4-(2-(5-chloro-1,4-dimethyl-6-oxo-1,6-dihydropyridin-3-yl)-3-isopropyl-1H-indol-5-yl)piperidin-1-yl)-2-methylpropanamide] were 4.6 nM, 26.6 nM and 13800 nM.
As for `Cc1cc(-c2[nH]c3ccc(C4CCNCC4)cc3c2C(C)C)cn(Cc2ccccc2)c1=O` [Example 46, 1-benzyl-5-(3-isopropyl-5-(piperidin-4-yl)-1H-indol-2-yl)-3-methylpyridin-2(1H)-one], the values for the IC50 in assay [1], in assay [2] and in assay [3] were 2.9 nM, 29.9 nM and 919 nM, respectively.
In the same order, the values of `COCCOCCN1CCC(c2ccc3[nH]c(-c4cn(C)c(=O)c(Cl)c4C)c(C(C)C)c3c2)CC1` [Example 101, 3-chloro-5-(3-isopropyl-5-(1-(2-(2-methoxyethoxy)ethyl)piperidin-4-yl)-1H-indol-2-yl)-1,4-dimethylpyridin-2(1H)-one] are 12.8 nM, 9.3 nM and 4880 nM.
For the molecule `CCc1cc(-c2[nH]c3ccc(C4CCNCC4)cc3c2C(C)C)c(C)n(CC)c1=O` [Example 35, 1,3-diethyl-5-(3-isopropyl-5-(piperidin-4-yl)-1H-indol-2-yl)-6-methylpyridin-2(1H)-one], the half-maximal inhibitory concentration (IC50) in assay [1] was 60 nM; in assay [2], 6.8 nM; in assay [3], 574 nM.
Consider `CNC(=O)CN1CCC(c2ccc3[nH]c(-c4cc(OC)c(=O)n(C)c4C)c(C(C)C)c3c2)CC1` [Example 142, 2-(4-(3-isopropyl-2-(5-methoxy-1,2-dimethyl-6-oxo-1,6-dihydropyridin-3-yl)-1H-indol-5-yl)piperidin-1-yl)-N-methylacetamide], for which the IC50 in assay [1] is 205 nM; in assay [2], 95.4 nM; in assay [3], 7650 nM.
In the same order, the values of `Cc1cc(-c2[nH]c3ccc(C4CCN(Cc5cc(Cl)ccc5F)CC4)cc3c2C(C)C)cn(C)c1=O` [Example 80, 5-(5-(1-(5-chloro-2-fluorobenzyl)piperidin-4-yl)-3-isopropyl-1H-indol-2-yl)-1,3-dimethylpyridin-2(1H)-one] are 128 nM, 141 nM and 48800 nM.
As for `Cc1c(-c2[nH]c3ccc(C4CCNCC4)cc3c2C(C)C)ccc(=O)n1C` [Example 6, 5-(3-isopropyl-5-(piperidin-4-yl)-1H-indol-2-yl)-1,6-dimethylpyridin-2(1H)-one], the values for the IC50 in assay [1], in assay [2] and in assay [3] were 12.8 nM, 13.3 nM and 580 nM, respectively.
For `Cc1c(-c2[nH]c3ccc(C4CCN(CC(C)C)CC4)cc3c2C(C)C)cn(C)c(=O)c1Cl` [Example 106, 3-chloro-5-(5-(1-isobutylpiperidin-4-yl)-3-isopropyl-1H-indol-2-yl)-1,4-dimethylpyridin-2(1H)-one], the IC50 in assay [1] worked out at 6.2 nM; in assay [2], 5.5 nM; in assay [3], 1250 nM.
Regarding `COCc1cc(-c2[nH]c3ccc(C4CCN(C5CCOCC5)CC4)cc3c2C(C)C)cn(C)c1=O` [Example 345, 5-(3-isopropyl-5-(1-(tetrahydro-2H-pyran-4-yl)piperidin-4-yl)-1H-indol-2-yl)-3-(methoxymethyl)-1-methylpyridin-2(1H)-one], the 50% inhibitory concentration (IC50) in assay [1] was found to be 11.1 nM; in assay [2], 16.9 nM; in assay [3], 7050 nM.
Regarding `Cc1cc(-c2[nH]c3ccc(C4CCNCC4)cc3c2C(C)C)cn(-c2ccccc2)c1=O` [Example 44, 5-(3-isopropyl-5-(piperidin-4-yl)-1H-indol-2-yl)-3-methyl-1-phenylpyridin-2(1H)-one], the figures for the half-maximal inhibitory concentration (IC50) in assay [1], in assay [2] and in assay [3] were 3.8 nM, 19.4 nM and 2080 nM, respectively.
